Results: ChEMBL document CHEMBL4257571, “Discovery of 5-(2-chloro-4'-(1H-imidazol-1-yl)-[1,1'-biphenyl]-4-yl)-1H-tetrazole as potent and orally efficacious S-nitrosoglutathione reductase (GSNOR) inhibitors for the potential treatment of COPD” (Bioorg Med Chem Lett, 2018)
Each block holds one compound with its values, some of them ahead of it.

Columns and labels:
CYP3A4 = CYP3A4 (Homo sapiens, UniProt P08684); experiment: (§1) Inhibition of CYP3A4 in human liver microsomes at 10 uM after 20 mins in presence of NADPH by LC/MS/MS analysis relative to control; format: ADME; settings: liver microsomes
Sequence of CYP3A4 (P08684 whole entry): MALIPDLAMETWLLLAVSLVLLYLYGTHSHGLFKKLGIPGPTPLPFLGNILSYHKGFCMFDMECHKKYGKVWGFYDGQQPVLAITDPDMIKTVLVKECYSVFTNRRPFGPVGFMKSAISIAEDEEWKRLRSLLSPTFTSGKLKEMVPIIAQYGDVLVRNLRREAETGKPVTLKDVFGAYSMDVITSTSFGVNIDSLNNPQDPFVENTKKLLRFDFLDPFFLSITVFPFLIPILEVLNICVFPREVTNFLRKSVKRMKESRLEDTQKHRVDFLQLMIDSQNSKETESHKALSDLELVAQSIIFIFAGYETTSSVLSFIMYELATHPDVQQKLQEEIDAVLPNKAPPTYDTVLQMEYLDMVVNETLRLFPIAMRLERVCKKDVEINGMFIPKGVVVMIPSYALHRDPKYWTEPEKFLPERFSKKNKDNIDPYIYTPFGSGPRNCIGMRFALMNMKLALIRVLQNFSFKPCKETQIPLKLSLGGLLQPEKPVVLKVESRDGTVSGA

CYP1A2 = molecular target: T1, CYP1A2 (Homo sapiens, UniProt P05177); experiment: (§2) Inhibition of CYP1A2 in human liver microsomes at 10 uM after 20 mins in presence of NADPH by LC/MS/MS analysis relative to control; format: ADME; settings: liver microsomes
T1 sequence (P05177 whole entry): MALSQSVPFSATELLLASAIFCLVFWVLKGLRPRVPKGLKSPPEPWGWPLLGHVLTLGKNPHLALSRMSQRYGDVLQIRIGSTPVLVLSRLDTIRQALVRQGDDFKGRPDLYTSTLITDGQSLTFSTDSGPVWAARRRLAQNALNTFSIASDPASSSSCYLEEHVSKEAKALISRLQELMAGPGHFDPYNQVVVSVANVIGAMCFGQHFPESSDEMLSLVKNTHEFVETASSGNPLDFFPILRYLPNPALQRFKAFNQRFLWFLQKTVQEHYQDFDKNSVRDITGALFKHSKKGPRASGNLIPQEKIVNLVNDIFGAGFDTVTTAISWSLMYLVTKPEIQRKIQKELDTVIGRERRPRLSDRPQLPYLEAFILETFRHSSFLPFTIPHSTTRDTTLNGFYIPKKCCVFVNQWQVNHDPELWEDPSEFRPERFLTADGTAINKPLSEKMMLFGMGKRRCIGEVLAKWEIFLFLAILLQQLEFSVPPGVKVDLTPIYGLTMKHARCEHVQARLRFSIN

[1] = Metabolic stability of human liver microsomes assessed as parent compound remaining at 0.1 uM after 60 mins in presence of NADPH by LC/MS/MS analysis; format: ADME, microsome; settings: read-out: Stability
CYP2C9 = CYP2C9 (Homo sapiens, UniProt P11712); experiment: Inhibition of CYP2C9 in human liver microsomes at 10 uM after 20 mins in presence of NADPH by LC/MS/MS analysis relative to control; format: ADME
Sequence of CYP2C9 (P11712 whole entry): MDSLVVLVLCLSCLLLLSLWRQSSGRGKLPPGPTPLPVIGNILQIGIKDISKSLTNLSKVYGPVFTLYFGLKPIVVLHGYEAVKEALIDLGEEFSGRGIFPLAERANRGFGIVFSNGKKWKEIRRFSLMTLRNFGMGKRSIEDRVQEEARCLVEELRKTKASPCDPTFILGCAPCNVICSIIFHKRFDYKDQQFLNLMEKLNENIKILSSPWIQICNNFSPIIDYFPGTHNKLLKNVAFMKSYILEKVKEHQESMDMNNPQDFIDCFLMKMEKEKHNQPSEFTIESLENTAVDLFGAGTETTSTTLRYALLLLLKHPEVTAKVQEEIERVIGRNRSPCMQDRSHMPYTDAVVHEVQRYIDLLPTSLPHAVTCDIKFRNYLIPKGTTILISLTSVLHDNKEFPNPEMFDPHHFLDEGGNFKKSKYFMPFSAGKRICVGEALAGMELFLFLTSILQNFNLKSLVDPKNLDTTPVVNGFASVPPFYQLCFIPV

[2] = Metabolic stability of mouse liver microsomes assessed as parent compound remaining at 0.1 uM after 60 mins in presence of NADPH by LC/MS/MS analysis; format: ADME, microsome; settings: read-out: Stability
[3] = Metabolic stability of rat liver microsomes assessed as parent compound remaining at 0.1 uM after 60 mins in presence of NADPH by LC/MS/MS analysis; format: ADME, microsome; settings: read-out: Stability
Cytochrome P450 2D6 = Cytochrome P450 2D6 (Homo sapiens, UniProt P10635); experiment: (§3) Inhibition of CYP2D6 in human liver microsomes at 10 uM after 20 mins in presence of NADPH by LC/MS/MS analysis relative to control; format: ADME; settings: microsomes, 20 min, 10 µM
Sequence of Cytochrome P450 2D6 (P10635 whole entry): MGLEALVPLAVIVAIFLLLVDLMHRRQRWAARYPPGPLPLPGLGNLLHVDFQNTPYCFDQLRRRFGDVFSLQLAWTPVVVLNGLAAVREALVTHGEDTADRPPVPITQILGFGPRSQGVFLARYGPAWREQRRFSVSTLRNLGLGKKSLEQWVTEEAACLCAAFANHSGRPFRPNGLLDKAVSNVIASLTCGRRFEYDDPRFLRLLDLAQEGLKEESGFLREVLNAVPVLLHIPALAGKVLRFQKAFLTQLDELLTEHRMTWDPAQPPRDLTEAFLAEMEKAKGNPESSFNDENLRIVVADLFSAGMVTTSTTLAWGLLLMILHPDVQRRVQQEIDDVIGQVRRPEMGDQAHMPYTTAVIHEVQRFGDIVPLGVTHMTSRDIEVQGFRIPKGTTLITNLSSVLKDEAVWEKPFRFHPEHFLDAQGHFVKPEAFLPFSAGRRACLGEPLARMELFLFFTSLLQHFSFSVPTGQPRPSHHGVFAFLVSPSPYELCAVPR

CYP2C19 = CYP2C19 (Homo sapiens, UniProt P33261); experiment: Inhibition of CYP2C19 in human liver microsomes at 10 uM after 40 mins in presence of NADPH by LC/MS/MS analysis relative to control; format: ADME
Sequence of CYP2C19 (P33261 whole entry): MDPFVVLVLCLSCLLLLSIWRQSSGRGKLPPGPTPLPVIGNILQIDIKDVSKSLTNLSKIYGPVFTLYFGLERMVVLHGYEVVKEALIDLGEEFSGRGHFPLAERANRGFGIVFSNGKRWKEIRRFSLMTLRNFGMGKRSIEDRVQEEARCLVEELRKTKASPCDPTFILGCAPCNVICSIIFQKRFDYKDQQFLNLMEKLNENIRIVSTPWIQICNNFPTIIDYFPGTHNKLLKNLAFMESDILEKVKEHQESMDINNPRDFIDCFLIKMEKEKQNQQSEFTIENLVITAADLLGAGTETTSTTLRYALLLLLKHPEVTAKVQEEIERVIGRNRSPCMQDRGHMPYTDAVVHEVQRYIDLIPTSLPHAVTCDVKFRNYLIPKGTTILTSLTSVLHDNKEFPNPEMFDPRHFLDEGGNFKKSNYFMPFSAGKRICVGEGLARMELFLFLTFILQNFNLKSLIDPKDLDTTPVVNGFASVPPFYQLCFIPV

[4] = molecular target: T2, Alcohol dehydrogenase class-3 (Homo sapiens, UniProt P11766); experiment: Inhibition of human GSNOR assessed as reduction in NADH consumption after 3 mins by spectrophotometric analysis
Target sequence in this assay (P11766 whole entry): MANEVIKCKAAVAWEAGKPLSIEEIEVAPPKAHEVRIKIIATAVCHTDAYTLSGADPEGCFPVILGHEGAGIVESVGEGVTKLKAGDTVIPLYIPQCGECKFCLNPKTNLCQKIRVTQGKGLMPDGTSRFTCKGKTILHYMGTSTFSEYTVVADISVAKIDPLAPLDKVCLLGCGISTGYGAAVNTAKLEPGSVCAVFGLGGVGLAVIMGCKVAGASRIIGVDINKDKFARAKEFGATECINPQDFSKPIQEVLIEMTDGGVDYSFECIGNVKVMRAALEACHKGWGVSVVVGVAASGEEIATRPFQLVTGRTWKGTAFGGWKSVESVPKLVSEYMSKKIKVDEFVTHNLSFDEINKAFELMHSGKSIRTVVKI

[5] = molecular target: T2, Alcohol dehydrogenase class-3; experiment: Inhibition of human GSNOR assessed as reduction in NADH consumption at 10 uM after 3 mins by spectrophotometric analysis relative to control
Target sequence in this assay (P11766 2-374 limits assumed): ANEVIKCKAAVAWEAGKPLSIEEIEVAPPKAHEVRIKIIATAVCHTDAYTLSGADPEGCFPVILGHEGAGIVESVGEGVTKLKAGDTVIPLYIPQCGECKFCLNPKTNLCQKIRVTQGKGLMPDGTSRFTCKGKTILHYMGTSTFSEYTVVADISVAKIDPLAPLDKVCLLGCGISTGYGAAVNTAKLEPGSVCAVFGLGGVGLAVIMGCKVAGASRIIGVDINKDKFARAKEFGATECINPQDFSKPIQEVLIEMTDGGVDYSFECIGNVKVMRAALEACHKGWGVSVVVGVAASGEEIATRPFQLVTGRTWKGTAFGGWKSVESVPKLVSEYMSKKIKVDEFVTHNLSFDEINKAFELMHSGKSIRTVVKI

CYP2D6 = CYP2D6 (Homo sapiens, UniProt P10635); experiment: as §3; format: ADME; settings: liver microsomes
Sequence of CYP2D6 (P10635 whole entry): as the sequence (P10635 whole entry) above

Cytochrome P450 3A4 = Cytochrome P450 3A4 (Homo sapiens, UniProt P08684); experiment: as §1; format: ADME; settings: microsomes, 20 min, 10 µM
Sequence of Cytochrome P450 3A4 (P08684 whole entry): as the sequence (P08684 whole entry) above

Cytochrome P450 1A2 = molecular target: T3, Cytochrome P450 1A2 (Homo sapiens, UniProt P05177); experiment: as §2; format: ADME; settings: microsomes, 20 min, 10 µM
T3 sequence (P05177 whole entry): T1 sequence (P05177 whole entry)

Mus musculus [6] = experiment: Anti-inflammatory activity in C57BL/6 mouse model of cigarette smoke induced chronic obstructive pulmonary disease assessed as macrophages level in bronchoalveolar lavage at 5 mg/kg, po BID administered 1 hr prior to both smoke exposure for 7 days by Leishman's staining based assay; format: functional
Mus musculus [7] = experiment: Anti-inflammatory activity in C57BL/6 mouse model of cigarette smoke induced chronic obstructive pulmonary disease assessed as total leukocyte count in bronchoalveolar lavage at 5 mg/kg, po BID administered 1 hr prior to both smoke exposure for 7 days by hemocytometry; format: functional
Mus musculus [8] = experiment: Anti-inflammatory activity in C57BL/6 mouse model of cigarette smoke induced chronic obstructive pulmonary disease assessed as neutrophil level in bronchoalveolar lavage at 5 mg/kg, po BID administered 1 hr prior to both smoke exposure for 7 days by Leishman's staining based assay; format: functional

SMILES: CCc1cc(-n2ccnc2C)ccc1-c1ccc(-c2nnn[nH]2)cc1
inhibition at 20 min, 10 µM (CYP3A4): 18%
inhibition at 20 min, 10 µM (CYP1A2): 13%
remaining at 1 h, 0.1 µM [1]: 5%
inhibition at 20 min, 10 µM (CYP2C9): 48%
remaining at 1 h, 0.1 µM [2]: 87%
remaining at 1 h, 0.1 µM [3]: 99%
inhibition (INH) (Cytochrome P450 2D6): Not Active
inhibition at 40 min, 10 µM (CYP2C19): 67%
IC50 [4]: 24 nM

SMILES: NC(=O)c1ccc(-c2ccc(-n3ccnc3)cc2)cc1
inhibition [5]: 60%

SMILES: Clc1cc(-n2ccnc2)cnc1-c1ccc(-c2nnn[nH]2)cc1
inhibition at 20 min, 10 µM (CYP3A4): 1%
inhibition at 20 min, 10 µM (CYP1A2): 20%
remaining at 1 h, 0.1 µM [1]: 83%
inhibition at 20 min, 10 µM (CYP2C9): 64%
remaining at 1 h, 0.1 µM [2]: 19%
remaining at 1 h, 0.1 µM [3]: 39%
inhibition at 20 min, 10 µM (CYP2D6): 11%
inhibition at 40 min, 10 µM (CYP2C19): 42%
IC50 [4]: 20 nM

SMILES: O=C(O)c1ccc(-c2ccc(-n3ccnc3)cc2)c(C(F)(F)F)c1
IC50 [4]: 38 nM

SMILES: Cc1cc(-n2ccnc2)cnc1-c1ccc(C(=O)O)cc1F
IC50 [4]: 36 nM

SMILES: Fc1cc(-c2nnn[nH]2)ccc1-c1ncc(-n2ccnc2)cc1Cl
inhibition (INH) (Cytochrome P450 3A4): Not Active
inhibition (INH) (Cytochrome P450 1A2): Not Active
inhibition at 20 min, 10 µM (CYP2C9): 50%
inhibition (INH) (Cytochrome P450 2D6): Not Active
inhibition at 40 min, 10 µM (CYP2C19): 42%
IC50 [4]: 27 nM

SMILES: O=C(O)c1ccc(-c2ccc(-n3ccnc3)cn2)cc1
IC50 [4]: 214 nM

SMILES: O=C(Nc1c(Cl)cncc1Cl)c1ccc(OC(F)F)c(OCC2CC2)c1 [ROFLUMILAST]
Activity (Mus musculus [6]): 75%
Activity (Mus musculus [7]): 58%
Activity (Mus musculus [8]): 40%

SMILES: Clc1cc(-c2nn[nH]n2)ccc1-c1ccc(-n2cnnn2)cc1
inhibition [5]: 36%

SMILES: Cc1cc(-n2ccnc2)cnc1-c1ccc(-c2nnn[nH]2)cc1
inhibition at 20 min, 10 µM (CYP3A4): 17%
inhibition at 20 min, 10 µM (CYP1A2): 1%
remaining at 1 h, 0.1 µM [1]: 94%
inhibition at 20 min, 10 µM (CYP2C9): 61%
remaining at 1 h, 0.1 µM [2]: 17%
remaining at 1 h, 0.1 µM [3]: 50%
inhibition at 20 min, 10 µM (CYP2D6): 9%
inhibition at 40 min, 10 µM (CYP2C19): 69%
IC50 [4]: 17 nM

SMILES: Clc1cc(-c2nnn[nH]2)ccc1-c1ccc(-n2ccnc2)cn1
IC50 [4]: 308 nM

SMILES: N#Cc1ccc(-c2ccc(-n3ccnc3)cc2)cc1
inhibition [5]: 10%

SMILES: CCc1cc(-n2ccnc2)ccc1-c1ccc(-c2nnn[nH]2)cc1
inhibition at 20 min, 10 µM (CYP3A4): 33%
inhibition at 20 min, 10 µM (CYP1A2): 56%
remaining at 1 h, 0.1 µM [1]: 100%
inhibition at 20 min, 10 µM (CYP2C9): 94%
remaining at 1 h, 0.1 µM [2]: 58%
remaining at 1 h, 0.1 µM [3]: 71%
inhibition at 20 min, 10 µM (CYP2D6): 37%
inhibition at 40 min, 10 µM (CYP2C19): 86%
IC50 [4]: 6.1 nM

More lines, in order of falling IC50 [4], values ahead:

IC50 [4]: 593 nM
SMILES: Clc1cc(-c2nn[nH]n2)ccc1-c1ccc(-n2cnnc2)cc1

IC50 [4]: 152 nM
SMILES: O=c1nc(-c2ccc(-c3ccc(-n4ccnc4)cc3)cc2)[nH]o1

IC50 [4]: 66 nM
SMILES: CCc1cc(-n2ccnc2)cnc1-c1ccc(-c2nnn[nH]2)cc1

IC50 [4]: 41 nM
SMILES: Cc1cc(-n2ccnc2)cnc1-c1ccc(C(=O)O)cc1

IC50 [4]: 39 nM
SMILES: FC(F)(F)c1cc(-c2nnn[nH]2)ccc1-c1ccc(-n2ccnc2)cc1

IC50 [4]: 37 nM
SMILES: Cc1nccn1-c1ccc(-c2ccc(-c3nnn[nH]3)cc2Cl)cc1

IC50 [4]: 32 nM
SMILES: c1cn(-c2ccc(-c3ccc(-c4nnn[nH]4)cc3)nc2)cn1

IC50 [4]: 29 nM
SMILES: O=C(O)c1ccc(-c2ccc(-n3ccnc3)cc2)c(F)c1
